# Test results reported in patent publication US12070452B2, “Compounds targeting HSP110 protein for cancer treatment” (INSERM (Institut National de la Santé et de la Recherche …, priority 2018, dated 2024).
# “Also recorded” adds a separate entry of the source.
# Assays:
# Bcl2 and Bcl-xL = experiment: Western blot of anti-apoptotic proteins Bcl2 and Bcl-xL in DLBCL cell lines; format: cell-based, human; details: TMD8 and HBL1, 76 h in vitro treatment
# Experimental: FIG. 10D: Expression analysis of BcL2 (first line), BcL-XL (second line), and Actin (third line) in TMD8 human B cell lymphoma cell line or in HBL1 human diffuse large B-cell lymphoma cell line, both cell lines being treated with Control (DMSO), compound 33 and compound 52.
# It has also been shown that compounds 33 and 52 reduce the expression of the anti-apoptotic proteins Bcl2 and Bcl-xL in these two human diffuse large B-cell lymphoma cell lines, as determined by Western blotting after a 76 h in vitro treatment with compound 33 or 52.
# SW480 cells = experiment: Cell proliferation, Cell Trace Violet flow cytometry, SW480; format: cell-based, human; details: SW480 cells with shRNA control, 10 μM, 96 h
# Experimental: FIG. 4A: Relative quantification of cell proliferation in SW480 cells transfected with shRNA for shRNA control (shCtrl) (from the first to the fourth columns from left to right) or HSP110-silencing (sh110) (from the fifth to the last columns, from left to right) treated with Ctrl (DMSO), compound 33, compound 52, and comparative compound 61 at a concentration of 10 μM during 96 h (Histogram columns from the left to the right). Ordinate: Percentage of SW480 cell proliferation (scale 20) for the upper figure; Statistical analysis has been performed by ANOVA **: (p<0.05); ***: p<0.005. Western blot of HSP110 and actin (first and second line of blots) for the shCtrl SW480 cells and sh110 SW480 cells (first and second columns).
# Colorectal cells lines were purchased from the American Type Culture Collection. CT-26 and HCT116 were cultured in Roswell Park Memorial Institute 1640 medium. […]
# Proliferation was determined by staining cells with Cell Trace Violet (Invitrogen-C34557) according to the manufacturer's procedure. Cell divisions were detected over 96 h by flow cytometry (LSRII cytometer) and the number of cell generations was estimated by ModFit software. […]
# CT26 cells = experiment: Flow cytometric analysis of cell death (Annexin V / 7-AAD) in CT26 cells; format: cell-based, mouse; details: 10 μM, 96 h
# Experimental: FIG. 5A: Flow cytometric analysis of cell death in CT26 cells treated with the compound 33 (at the bottom left), compound 52 (at the bottom middle), comparative compound 61 (at the bottom right) at 10 μM during 96 h compared with Control (DMSO) (at the top left), and Cisplatin (at the top middle and top right). Live cells were double negative for 7-AAD (Y axis) and Annexin V (X axis), early apoptotic cells were positive for Annexin V, late apoptotic cells were positive for Annexin V and 7-AAD ([…]) and dead cells were positive for 7-AAD only.
# FIG. 5B: Quantification of cell viability (in percentage) from flow cytometry data are represented (Control, cells, compounds 33, 52 and 61 from the left to the right bars). (Abscissa Negativity of 7-AAD; Ordinate Negativity of Annexin V).
# We then analyzed cell death in CT26 cells treated with 10 μM during 96 h of compounds 33, 52 and 61 by flow cytometry. Cells were also treated with a well know anti-cancer compound, called cisplatin. Cells were marked for 7-aminoactinomycin D, which exclusively bind on death cells and for Annexin V, a well-known indicators of early stage apoptosis, thanks to its ability to bind to phosphatidylserine.
# phosphorylated STAT3 = experiment: P-STAT3 level in SW480 cells (immunoblot quantification); format: cell-based, human; details: 10 μM, 48 h, normalized by actin
# Experimental: Results for SW480 cells treated during 48 h with non-relevant antibody (called NT), compound 52, compound 33, compound 51 and comparative compound 61 at 10 μM, and sh110 cells correspond to the third fourth, fifth, sixth and last columns from the left to the right.
# FIG. 3B: Quantification of P-STAT3 level (in percentage) normalized by actin. […] (Ordinate: Percentage of P-STAT3 level (scale 50)
# Immunoprecipitation test were realized on human colorectal cancer cells (SW480 and HCT116 cell lines), using a control depleted in HSP110 called Sh110 and a not depleted cells in HSP110. STAT3 phosphorylation is then […] by compounds 33 and 52. Depletion of HSP110 in the negative control blocked the phosphorylation of STAT3 without affecting STAT3 overall levels (FIGS. 2 and 3).
# DLBCL cell lines = experiment: Viability of B-cell lymphoma cell lines (Annexin V/7AAD staining); format: cell-based, human; details: 96 h, 5-40 μM
# Excerpt: FIG. 10E: Viability of various B-cell lymphoma cell lines treated with increasing concentrations of compound 33 (inhibitor 33).
# Groups of bars, from the left to the right of FIG. 10E: (i) OCI-Ly10 human diffuse large B-cell lymphoma cell line, (ii) HBL1 human diffuse large B-cell lymphoma cell line, (iii) TMD8 human B cell lymphoma cell line, (iv) OCI-Ly3 human large B-cell lymphoma cell line and (v) U2932 human diffuse large B-cell lymphoma cell line.
# In each group of bars, from the left to the right: (i) Control, without treatment, (ii) Compound 33 at 5 μM, (iii) Compound 33 at 10 μM, (iv) Compound 33 at 20 μM, (v) Compound 33 at 30 μM, (vi) Compound 33 at 40 μM.
# FIG. 10F: Viability of various B-cell lymphoma cell lines treated with increasing concentrations of compound 52 (inhibitor 52).
# Groups of bars, from the left to the right of FIG. 10F: (i) TMD8 human B cell lymphoma cell line and (ii) OCI-Ly3 human large B-cell lymphoma cell line.
# In each group of bars, from the left to the right: (i) Control, without treatment (0 μM), (ii) Compound 52 at 5 μM, (iii) Compound 52 at 10 μM, (iv) Compound 52 at 20 μM, (v) Compound 52 at 30 μM, (vi) Compound 52 at 40 μM.
SMILES,expression of anti-apoptotic protein Bcl2 (Bcl2 and Bcl-xL),expression of anti-apoptotic protein Bcl-xL (Bcl2 and Bcl-xL),hampering of cell proliferation (SW480 cells),cell death / apoptosis (Annexin V and 7-AAD marking) (CT26 cells),P-STAT3 level (phosphorylated STAT3),"viability of DLBCL cell lines (DLBCL cell lines; OCI-Ly10, HBL1, TMD8, OCI-Ly3 and U2932)",viability of DLBCL cell lines (DLBCL cell lines; TMD8 and OCI-Ly3)
"COc1ccc(-c2ncc(-c3ncc(-c4cc(OC)c(OC)c(OC)c4)cc3/C=C/c3ccccc3)cc2C)cc1OC [compound 33, (E)-6′-(3,4-Dimethoxyphenyl)-5′-methyl-3-styryl-5-(3,4,5-trimethoxyphenyl)-2,3′-bipyridine]",reduce,reduce,60%,don't seem to be marked; also recorded: does not allow detecting significally apoptosis,~60%,reduces the viability,–
"COc1cc(-c2cnc(-c3cnc(-c4cc(OC)c(OC)c(OC)c4)c(C)c3)c(/C=C/c3ccccc3)c2)cc(OC)c1OC [compound 52, (E)-5′-Methyl-3-styryl-5,6′-bis(3,4,5-trimethoxyphenyl)-2,3′-bipyridine]",reduce,reduce,82%,don't seem to be marked; also recorded: does not allow detecting significally apoptosis,about 20%,–,reduces the viability
